Source: patent publication US10870638B2, “Pyridazinone compound or its salt, and herbicide containing it” (ISHIHARA SANGYO KAISHA, LTD., priority 2016, dated 2020)

Assays:
Format in all cases: in vivo
Conditions in all cases: active ingredient amount 31 g/ha, 14th day after application
[1] = test system: velvetleaf (Abutilon theophrasti MEDIC.); test: Test Example 2: soil application on the day after sowing, growth inhibition rate on 14th day
Summary of the method: (§1)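 Growth inhibition (%) judged by eye at day 14, scale 0 = as untreated to 100 = complete kill. Compounds formulated as wettable powders or emulsifiable concentrates, diluted in 1,000 L water per ha and sprayed onto pot soil one day post-sowing at set active-ingredient rates.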

[2] = test system: barnyardgrass (Echinochloa crus-qalli L.); test: as above
Summary of the method: as §1

[3] = test system: wheat (Triticum aestivum L.); test: as above
Summary of the method: as §1

[4] = test system: corn (Zea mays L.); test: as above
Summary of the method: as §1

[5] = test system: soybean (Glycine max Merr.); test: as above
Summary of the method: as §1

[6] = test system: crabgrass (Digitaris sanquinalis L.); test: as above
Summary of the method: as §1

[7] = test system: redroot pigweed (Amaranthus retroflexus L.); test: as above
Summary of the method: as §1

[8] = test system: rice (Oryza sativa L.); test: as above
Summary of the method: as §1

[9] = test system: prickly sida (Sida spinosa L.); test: as above
Summary of the method: as §1

[10] = test system: green foxtail (Setaria viridis L.); test: as above
Summary of the method: as §1

[11] = test system: italian ryegrass (Lolium multiflorum Lam.); test: Test Example 1: foliar treatment, growth inhibition rate on 14th day
Summary of the method: (§2)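 Visual 0–100% inhibition scoring (100 = complete kill) at 14 days after foliar treatment of soil-grown seedlings at species-specific leaf stages, with the compound sprayed as a wettable powder or emulsifiable concentrate dilution.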

[12] = test system: barnyardgrass (Echinochloa crus-qalli L.); test: as above
Summary of the method: as §2

[13] = test system: wild oat (Avena fatua L.); test: as above
Summary of the method: (§3)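 Inhibition was rated visually 14 days after treatment on a 0–100% scale, where 100 is complete kill. Compounds, formulated as wettable powders or emulsifiable concentrates at set active-ingredient amounts, were diluted to 1,000 L/ha with 0.1 vol% spreader. The dilutions were sprayed post-emergence onto soybean (primary leaf), rice (0.2–2.7 leaf), wild oat (0.4–1.2) and green foxtail (0.5–3.2).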

[14] = test system: wheat (Triticum aestivum L.); test: as above
Summary of the method: as §2

[15] = test system: corn (Zea mays L.); test: as above
Summary of the method: as §2

[16] = test system: soybean (Glycine max Merr.); test: as above
Summary of the method: as §3

[17] = test system: crabgrass (Digitaria sanquinalis L.); test: as above
Summary of the method: as §2

[18] = test system: redroot pigweed (Amaranthus retroflexus L.); test: as above
Summary of the method: as §2

[19] = test system: rice (Oryza sativa L.); test: as above
Summary of the method: as §3

[20] = test system: green foxtail (Setaria viridis L.); test: as above
Summary of the method: as §3

Row | SMILES | Growth inhibition rate (%) Velvetleaf [1] [%] | Growth inhibition rate (%) Barnyardgrass [2] [%] | Growth inhibition rate (%) Wheat [3] [%] | Growth inhibition rate (%) Corn [4] [%] | Growth inhibition rate (%) Soybean [5] [%] | Growth inhibition rate (%) Crabgrass [6] [%] | Growth inhibition rate (%) Redroot pigweed [7] [%] | Growth inhibition rate (%) Rice [8] [%] | Growth inhibition rate (%) Prickly sida [9] [%] | Growth inhibition rate (%) Green foxtail [10] [%] | Growth inhibition rate (%) Italian ryegrass [11] [%] | Growth inhibition rate (%) Barnyardgrass [12] [%] | Growth inhibition rate (%) Wild oat [13] [%] | Growth inhibition rate (%) Wheat [14] [%] | Growth inhibition rate (%) Corn [15] [%] | Growth inhibition rate (%) Soybean [16] [%] | Growth inhibition rate (%) Crabgrass [17] [%] | Growth inhibition rate (%) Redroot pigweed [18] [%] | Growth inhibition rate (%) Rice [19] [%] | Growth inhibition rate (%) Green foxtail [20] [%]
1 | Cc1nn(C)c(=O)c(-c2cc(Oc3nc4ccc(Cl)cc4o3)ccc2OC(F)(F)F)c1O [Compound 2-175] | 0 | 100 | 0 | 30 | 0 | 95 | 0 | 90 | 0 | 99 | 50 | 98 | 10 | 0 | 95 | 10 | 98 | 0 | 0 | 99
2 | CCn1nc(C)c(O)c(-c2cc(Oc3nc4ccc(Cl)cc4o3)ccc2C)c1=O [Compound 2-176] | 0 | 100 | 0 | 0 | 0 | 98 | 0 | 60 | 0 | 99 | 85 | 100 | 25 | 0 | 80 | 0 | 99 | 0 | 10 | 100
3 | CCn1nc(C)c(OC(C)=O)c(-c2cc(Oc3nc4ccc(Cl)cc4o3)ccc2C)c1=O [Compound 2-177] | 0 | 90 | 0 | 0 | 0 | 98 | 0 | 30 | 0 | 90 | 98 | 100 | 98 | 90 | 83 | 30 | 100 | 0 | 65 | 99
4 | Cc1ccc(Oc2nc3ccc(Br)cc3o2)cc1-c1c(O)cnn(C)c1=O [Compound 2-181] | 0 | 90 | 0 | 0 | 0 | 0 | 0 | 20 | 0 | 40 | 93 | 100 | 83 | 35 | 70 | 0 | 99 | 0 | 10 | 100
5 | Cc1ccc(Oc2cnc(C(F)(F)F)cn2)cc1-c1c(O)c(C)nn(C)c1=O [Compound 2-194] | 0 | 95 | 0 | 40 | 0 | 83 | 0 | 30 | 0 | 99 | 35 | 85 | 10 | 0 | 60 | 10 | 90 | 0 | 0 | 90
6 | CC(=O)Oc1c(C)nn(C)c(=O)c1-c1cc(Oc2cnc(C(F)(F)F)cn2)ccc1C [Compound 2-195] | 0 | 98 | 0 | 0 | 0 | 98 | 0 | 20 | 0 | 99 | 85 | 93 | 90 | 35 | 83 | 30 | 90 | 0 | 40 | 93
7 | CC(=O)Oc1c(C)nn(C)c(=O)c1-c1cc(Oc2cnc3cc(Cl)ccc3n2)ccc1C [Compound 3-33] | 0 | 100 | 40 | 20 | 0 | 99 | 0 | 60 | 0 | 100 | 98 | 100 | 100 | 100 | 10 | 30 | 99 | 0 | 93 | 100
8 | CCc1nn(C)c(=O)c(-c2cc(Oc3cnc4cc(Cl)ccc4n3)ccc2C)c1O [Compound 3-34] | 0 | 99 | 0 | 20 | 0 | 65 | 0 | 20 | 0 | 98 | 99 | 100 | 95 | 90 | 15 | 30 | 95 | 0 | 90 | 100
9 | COCOc1c(C)nn(C)c(=O)c1-c1cc(Oc2cnc3cc(Cl)ccc3n2)ccc1C [Compound 3-40] | 0 | 90 | 0 | 10 | 0 | 10 | 0 | 10 | 0 | 40 | 98 | 99 | 98 | 98 | 25 | 10 | 99 | 0 | 85 | 99
